Assay results reported in patent US6875777B2, “Compounds” (AstraZeneca AB, priority 1999, dated 2005).

Experiments:
[1] = MLM metabolic stability (% remaining); conditions: for MLM 10000 % REM.: 10000 (unit not given); for MLM 100000 % REM.: 100000 (unit not given)
[2] = RLM metabolic stability (% remaining); conditions: for RLM 10000 % REM.: 10000 (unit not given); for RLM 100000 % REM.: 100000 (unit not given)

Row | Compound | MLM 10000 % REM. [1] | MLM 100000 % REM. [1] | RLM 10000 % REM. [2] | RLM 100000 % REM. [2]
1 | CCN(CC)C(=O)c1ccc(N(c2cccc(O)c2)C2CCN(Cc3ccccc3)CC2)cc1 [Example 1] | 10.4% | 85.2% | 4.333% | 66.125%
2 | CCN(CC)C(=O)c1ccc(N(c2cc(O)ccc2F)C2CCN(Cc3ccccc3)CC2)cc1 [Example 6, N,N-diethyl-4-[(2-fluoro-5-hydroxyphenyl)[1-(phenylmethyl)-4-piperidinyl]amino]-benzamide] | 2% | 69% | 5.333% | 81.333%
3 | CCN(CC)C(=O)c1ccc(N(c2cccc(O)c2)C2CCN(Cc3ccoc3)CC2)cc1 [Example 15, N,N-diethyl-4-[[1-(3-furanylmethyl)-4-piperidinyl](3-hydroxyphenyl)amino]-benzamide] | 3.5% | 83.5% | 8% | 73%
4 | CCN(CC)C(=O)c1ccc(N(c2cccc(O)c2)C2CCN(Cc3ccsc3)CC2)cc1 [Example 16, N,N-diethyl-4-[(3-hydroxyphenyl)[1-(3-thienylmethyl)-4-piperidinyl]amino]-benzamide] | 5% | 83% | 1.5% | 66.5%
5 | CCN(CC)C(=O)c1ccc(N(c2cccc(O)c2)C2CCN(Cc3ccc(I)cc3)CC2)cc1 [Example 19, N,N-diethyl-4-[(3-hydroxyphenyl)[1-[(4-iodophenyl)methyl]-4-piperidinyl]amino]-benzamide] | 30.667% | 61.667% | 0% | 35.667%
6 | CCN(CC)C(=O)c1ccc(N(c2cccc(O)c2)C2CCN(Cc3ccc(Br)cc3)CC2)cc1 [Example 20, N,N-diethyl-4-[[1-[(4-bromophenyl)methyl]-4-piperidinyl](3-hydroxyphenyl)amino]-benzamide] | 30.5% | 81.5% | 4.5% | 51.5%
7 | CCN(CC)C(=O)c1ccc(N(c2cccc(O)c2)C2CCN(Cc3ccc(Cl)cc3)CC2)cc1 [Example 21, N,N-diethyl-4-[[1-[(4-chlorophenyl)methyl]-4-piperidinyl](3-hydroxyphenyl)amino]-benzamide] | 16.333% | 85% | 2.333% | 45%
8 | CCN(CC)C(=O)c1ccc(N(c2cccc(O)c2)C2CCN(Cc3ccc(F)cc3)CC2)cc1 [Example 22, N,N-diethyl-4-[[1-[(4-fluorophenyl)methyl]-4-piperidinyl](3-hydroxyphenyl)amino]-benzamide] | 8.5% | 85% | 17% | 63%
9 | CCN(CC)C(=O)c1ccc(N(c2cccc(O)c2)C2CCN(Cc3ccc(Cl)cc3Cl)CC2)cc1 [Example 23, 4-[[1-[(2,4-dichlorophenyl)methyl]-4-piperidinyl](3-hydroxyphenyl)amino]-N,N-diethyl-benzamide] | 30.5% | 93% | 20.5% | 75%
10 | CCN(CC)C(=O)c1ccc(N(c2cccc(O)c2)C2CCN(Cc3cccc(F)c3)CC2)cc1 [Example 24, N,N-diethyl-4-[[1-[(3-fluorophenyl)methyl]-4-piperidinyl](3-hydroxyphenyl)amino]-benzamide] | 3.5% | 71.5% | 3.5% | 87.5%
11 | CCN(CC)C(=O)c1ccc(N(c2cccc(O)c2)C2CCN(Cc3ccccc3F)CC2)cc1 [Example 25, N,N-diethyl-4-[[1-[(2-fluorophenyl)methyl]-4-piperidinyl](3-hydroxyphenyl)amino]-benzamide] | 0% | 71% | 4% | 71%
12 | CCN(CC)C(=O)c1ccc(N(c2cccc(O)c2)C2CCN(Cc3ccc(C)cc3)CC2)cc1 [Example 26, N,N-diethyl-4-[(3-hydroxyphenyl)[1-[(4-methylphenyl)methyl]-4-piperidinyl]amino]-benzamide] | 31.5% | 86% | 3.5% | 63.5%
13 | CCN(CC)C(=O)c1ccc(N(c2cccc(O)c2)C2CCN(Cc3ccco3)CC2)cc1 [Example 27, N,N-diethyl-4-[[1-(2-furanylmethyl)-4-piperidinyl](3-hydroxyphenyl)amino]-benzamide] | 2% | 65% | 3.5% | 54.5%
14 | CCN(CC)C(=O)c1ccc(N(c2cccc(O)c2)C2CCN(Cc3cccs3)CC2)cc1 [Example 28, N,N-diethyl-4-[(3-hydroxyphenyl)[1-(2-thienylmethyl)-4-piperidinyl]amino]-benzamide] | 1.5% | 80% | 1.5% | 52%
15 | CCN(CC)C(=O)c1ccc(N(c2cccc(O)c2)C2CCN(Cc3ncc[nH]3)CC2)cc1 [Example 29, N,N-diethyl-4-{3-hydroxy[1-(1H-imidazol-2-ylmethyl)-4-piperidinyl]anilino}benzamide] | 6% | 92.5% | 36.5% | 74.5%
16 | CCN(CC)C(=O)c1ccc(N(c2cccc(O)c2)C2CCN(Cc3ccccn3)CC2)cc1 [Example 30, N,N-diethyl-4-{3-hydroxy[1-(2-pyridinylmethyl)-4-piperidinyl]anilino}benzamide] | 26% | 82% | 31% | 74%
